Source: patent US11634390B2, “Agricultural chemicals” (GLOBACHEM NV, priority 2016, dated 2023)

What was measured:
Format in all cases: in vivo
four weed species = assay: Herbicidal screen, summary across the four weed species; details: summary in words, 12.5-100 g/ha
Protocol: (§1) Compounds were screened at four concentrations (100, 50, 25 and 12.5 g/ha) against four weed species (Stellaria media—Chickweed; Abutilon theophrasti—velvetleaf; Amaranthus retroflexus—common amaranthus; Echinochloa crus-galli—Barnyard grass) and maize as a crop species. Seed were sown in 12.5 cm diameter pots (20 per pot for the weed species and 5 for maize). Seedlings were sprayed with 2 ml of compound two weeks after sowing, with 2 ml water used as the control. Each treatment was replicated three times. Plants were maintained at 20° C. and assessed 10 days after treatment. The assessment was based on the % plant in each pot showing growth. The data is presented in Table 1 in which d represents no detected effect at this concentration; c represents a percentage increase in necrosis relative to the control of 0.1-50; b represents a percentage increase in necrosis of 50-80; and a represents a percentage increase in necrosis of 80-100.

Stellaria media = assay: Herbicidal screen, post-emergence spray of seedlings in pots: Chickweed; set-up: key to percentage increase in necrosis relative to the control: no detected effect at this concentration; a percentage increase in necrosis relative to the control of 0.1-50; b: a percentage increase in necrosis of 50-80; a percentage increase in necrosis of 80-100; details: assessed 10 days after treatment; for pest or weed control at 12.5 g/ha / pest or weed control at 25 g/ha / pest or weed control at 50 g/ha / pest or weed control at 100 g/ha: Stellaria media, post-emergence, 240 h, read-out: percentage increase in necrosis relative to the control
Protocol: as §1

Amaranthus retroflexus = assay: Herbicidal screen, post-emergence spray of seedlings in pots: common amaranthus; set-up: key to percentage increase in necrosis relative to the control: no detected effect at this concentration; a percentage increase in necrosis relative to the control of 0.1-50; b: a percentage increase in necrosis of 50-80; a percentage increase in necrosis of 80-100; details: assessed 10 days after treatment; for pest or weed control at 12.5 g/ha / pest or weed control at 25 g/ha / pest or weed control at 50 g/ha / pest or weed control at 100 g/ha: Amaranthus retroflexus, post-emergence, 240 h, read-out: percentage increase in necrosis relative to the control
Protocol: as §1

Echinochloa crus-galli = assay: Herbicidal screen, post-emergence spray of seedlings in pots: Barnyard grass; set-up: key to percentage increase in necrosis relative to the control: no detected effect at this concentration; a percentage increase in necrosis relative to the control of 0.1-50; b: a percentage increase in necrosis of 50-80; a percentage increase in necrosis of 80-100; details: assessed 10 days after treatment; for pest or weed control at 12.5 g/ha / pest or weed control at 25 g/ha / pest or weed control at 50 g/ha / pest or weed control at 100 g/ha: Echinochloa crus-galli, post-emergence, 240 h, read-out: percentage increase in necrosis relative to the control
Protocol: as §1

maize = assay: Herbicidal screen, post-emergence spray of seedlings in pots: crop species; set-up: key to percentage increase in necrosis relative to the control: no detected effect at this concentration; a percentage increase in necrosis relative to the control of 0.1-50; b: a percentage increase in necrosis of 50-80; a percentage increase in necrosis of 80-100; details: assessed 10 days after treatment; for plant injury at 12.5 g/ha / plant injury at 25 g/ha / plant injury at 50 g/ha / plant injury at 100 g/ha: Zea mays, post-emergence, 240 h, read-out: percentage increase in necrosis relative to the control
Protocol: as §1

Abutilon theophrasti = assay: Herbicidal screen, post-emergence spray of seedlings in pots: velvetleaf; set-up: key to percentage increase in necrosis relative to the control: no detected effect at this concentration; a percentage increase in necrosis relative to the control of 0.1-50; b: a percentage increase in necrosis of 50-80; a percentage increase in necrosis of 80-100; details: assessed 10 days after treatment; for pest or weed control at 12.5 g/ha / pest or weed control at 25 g/ha / pest or weed control at 50 g/ha / pest or weed control at 100 g/ha: Abutilon theophrasti, post-emergence, 240 h, read-out: percentage increase in necrosis relative to the control
Protocol: as §1

Structure (SMILES) | herbicidal activity against the weed species (four weed species) | pest or weed control at 12.5 g/ha (Stellaria media; 12.5 g/ha) [%] | pest or weed control at 25 g/ha (Stellaria media; 25 g/ha) [%] | pest or weed control at 50 g/ha (Stellaria media; 50 g/ha) [%] | pest or weed control at 100 g/ha (Stellaria media) [%] | pest or weed control at 12.5 g/ha (Amaranthus retroflexus; 12.5 g/ha) [%] | pest or weed control at 25 g/ha (Amaranthus retroflexus; 25 g/ha) [%] | pest or weed control at 50 g/ha (Amaranthus retroflexus) [%] | pest or weed control at 100 g/ha (Amaranthus retroflexus) [%] | pest or weed control at 12.5 g/ha (Echinochloa crus-galli; 12.5 g/ha) [%] | pest or weed control at 25 g/ha (Echinochloa crus-galli; 25 g/ha) [%] | pest or weed control at 50 g/ha (Echinochloa crus-galli) [%] | pest or weed control at 100 g/ha (Echinochloa crus-galli) [%] | plant injury at 12.5 g/ha (maize; 12.5 g/ha) [%] | plant injury at 25 g/ha (maize; 25 g/ha) [%] | plant injury at 50 g/ha (maize) [%] | plant injury at 100 g/ha (maize) [%] | pest or weed control at 25 g/ha (Abutilon theophrasti) [%] | pest or weed control at 50 g/ha (Abutilon theophrasti) [%] | pest or weed control at 100 g/ha (Abutilon theophrasti) [%] | other results
Cl.Cn1c(C(F)(F)F)cc(=O)n(-c2cc(C(=O)NS(=O)(=O)C3CCNCC3)c(Cl)cc2F)c1=O [Example 2, 2-Chloro-4-fluoro-5-(3-methyl-2,6-dioxo-4-(trifluoromethyl)-3,6-dihydropyrimidin-1(2H)-yl)-N-(piperidin-4-ylsulfonyl)benzamide hydrochloride] | good activity across several of the weed species | 50 to 80 | 50 to 80 | 50 to 80 | 80 to 100 | 80 to 100 | 80 to 100 | 80 to 100 | 80 to 100 | 0.1 to 50 | 50 to 80 | 50 to 80 | 80 to 100 | 0.1 to 50 | 0.1 to 50 | 50 to 80 | 50 to 80 | 50 to 80 | 50 to 80 | 80 to 100 | pest or weed control at 12.5 g/ha (Abutilon theophrasti; 12.5 g/ha): 50 to 80%
CN1CCC(S(=O)(=O)NC(=O)c2cc(-n3c(=O)cc(C(F)(F)F)n(C)c3=O)c(F)cc2Cl)C1.Cl (centres unmarked) [Example 5, 2-Chloro-4-fluoro-5-(3-methyl-2,6-dioxo-4-(trifluoromethyl)-3,6-dihydropyrimidin-1(2H)-yl)-N-((1-methylpyrrolidin-3-yl)sulfonyl)benzamide hydrochloride] | good activity across several of the weed species | 0.1 to 50 | 0.1 to 50 | 50 to 80 | 50 to 80 | 80 to 100 | 80 to 100 | 80 to 100 | 80 to 100 | 0.1 to 50 | 0.1 to 50 | 0.1 to 50 | 50 to 80 | 0.1 to 50 | 0.1 to 50 | 0.1 to 50 | 0.1 to 50 | 50 to 80 | 80 to 100 | 80 to 100 | pest or weed control at 12.5 g/ha (Abutilon theophrasti; 12.5 g/ha): 0.1 to 50%
Cn1c(C(F)(F)F)cc(=O)n(-c2cc(C(=O)NS(=O)(=O)C3CC3)ccc2F)c1=O [Example 15, N-(Cyclopropylsulfonyl)-4-fluoro-3-(3-methyl-2,6-dioxo-4-(trifluoromethyl)-3,6-dihydropyrimidin-1(2H)-yl)benzamide] |  |  |  |  | 0.1 to 50 |  |  | 50 to 80 | 50 to 80 |  |  | 0.1 to 50 | 0.1 to 50 |  |  | 0.1 to 50 | 0.1 to 50 | 0.1 to 50 | 50 to 80 | 50 to 80 | percentage increase in necrosis relative to the control (Stellaria media; 12.5 g/ha): d; percentage increase in necrosis relative to the control (Stellaria media; 25 g/ha): d; percentage increase in necrosis relative to the control (Stellaria media; 50 g/ha): d; percentage increase in necrosis relative to the control (Amaranthus retroflexus; 12.5 g/ha): d; percentage increase in necrosis relative to the control (Amaranthus retroflexus; 25 g/ha): d; percentage increase in necrosis relative to the control (Echinochloa crus-galli; 12.5 g/ha): d; percentage increase in necrosis relative to the control (Echinochloa crus-galli; 25 g/ha): d; percentage increase in necrosis relative to the control (maize; 12.5 g/ha): d; percentage increase in necrosis relative to the control (maize; 25 g/ha): d; percentage increase in necrosis relative to the control (Abutilon theophrasti; 12.5 g/ha): d
